Molecular target: T1, human RNase L (Homo sapiens, UniProt Q05823)
T1 construct: gene RNASEL; full-length (741 a.a.) recombinant human RNase L, GST-RNase L fusion protein
T1 sequence (Q05823 1-741): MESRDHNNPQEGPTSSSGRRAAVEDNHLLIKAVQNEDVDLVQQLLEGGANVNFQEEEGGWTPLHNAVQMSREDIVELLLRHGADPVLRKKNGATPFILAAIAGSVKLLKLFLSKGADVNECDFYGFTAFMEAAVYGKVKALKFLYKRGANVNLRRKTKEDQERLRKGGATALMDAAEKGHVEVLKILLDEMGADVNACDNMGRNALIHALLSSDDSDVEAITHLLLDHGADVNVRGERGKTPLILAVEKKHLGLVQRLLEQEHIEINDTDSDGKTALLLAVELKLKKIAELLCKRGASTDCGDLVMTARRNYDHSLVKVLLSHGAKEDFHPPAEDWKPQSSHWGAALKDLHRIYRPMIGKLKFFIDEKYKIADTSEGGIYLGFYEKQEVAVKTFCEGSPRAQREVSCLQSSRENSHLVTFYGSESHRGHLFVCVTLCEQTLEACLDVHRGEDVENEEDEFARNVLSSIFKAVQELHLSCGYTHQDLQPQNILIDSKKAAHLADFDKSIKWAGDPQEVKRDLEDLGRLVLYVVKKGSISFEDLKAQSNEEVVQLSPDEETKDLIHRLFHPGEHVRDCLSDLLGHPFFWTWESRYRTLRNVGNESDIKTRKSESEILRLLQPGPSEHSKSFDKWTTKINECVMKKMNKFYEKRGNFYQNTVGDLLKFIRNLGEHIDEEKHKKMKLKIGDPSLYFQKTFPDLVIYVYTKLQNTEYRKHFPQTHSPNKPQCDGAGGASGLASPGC
Experiment: intrinsic fluorescence quenching titration (Hill fit); also noncompetitive inhibition of purified GST-RNase L RNA degradation with […]-5A, Ki […], biphasic dose response
Type: binding

Kd: 397 ± 18 nM
SMILES: COc1cc(/C=C/C(=O)CC(=O)/C=C/c2ccc(O)c(OC)c2)ccc1O [curcumin, 1,7-bis-[4 hydroxy-3-methoxy]-1,6 heptadiene-3,5-dione]

Source: article PMC4165196, “Curcumin, a Natural Antioxidant, Acts as a Noncompetitive Inhibitor of Human RNase L in Presence of Its Cofactor 2-5A In Vitro” (BioMed Research International, 2014)
